Results from patent publication US20240150340A1, “CDK Inhibitors And Their Use As Pharmaceuticals” (Prelude Therapeutics Incorporated, priority 2022, published 2024).

Key:
OVCAR3 p-RB = test: pRB ICW Assay in OVCAR3 Cells; assay type: cell-based; conditions: Homo sapiens, OVCAR-3, incubated with compound for 2 hours
Method: pRB ICW Assay in OVCAR3 Cells
OVCAR3 cells were maintained in RPMI (Corning, Catalog #: 10-040-CV) supplemented with 10% v/v FBS (Gibco, Catalog #: 26140-079), 1% v/v Penicillin Streptomycin (Gibco, Catalog #15140-122.) OVCAR3 cells grown at log phase were trypsinized, counted, and resuspended in fresh medium to reach a final density of 6.7e4 cells/mL and 75 μL of culture were dispensed into a 384-well plate (Falcon, cat #353962) using a Multidrop Combi dispenser (Thermo Scientific). The next day, compounds were dispensed as a 9-point, ½ log serial dilution using a Tecan digital dispenser (D300e), and cells were incubated with compound for 2 hours in a humidified incubator at 37° C. A reference compound at a final concentration of 10 μM was used as a control for maximum inhibition. Each compound was tested in duplicate for each experiment. At the end of the incubation, […] (Electron Microscopy, cat #15710) was slowly added to each well and the plate was incubated at room temperature (RT) for 30 minutes to fix cells. Cells were then permeabilized by incubating with 50 μL/well of wash buffer (1×PBS with 0.1% Triton X-100) 5×5 minutes, followed by 1 hour blocking with 30 μL/well of Odyssey blocking buffer (Li-COR, cat #927-40000), at RT. Anti-phosphor RB antibody (Cell signaling 8516S) was diluted 1:1000 in Odyssey blocking buffer and 20 μL was added to all wells and incubated overnight in 4° C. with gently rocking. The next day, cells were washed 5×5 min with 50 μL/well of wash buffer, followed with 1 hour incubation with secondary antibody and DRAQ5 diluted in Odyssey blocking buffer (1:500 dilution for secondary antibody and 1:2000 dilution for DRAQ5), 5×5 min washes, and one last wash with water. Plates were dried in 37° C. oven for 5 minutes and scanned using Li-COR Odyssey CLx imaging system to acquire intensities at 700 and 800 nm channels.

CDK2/Cyclin E2 = biological target: T1, CDK2/Cyclin E2 (Homo sapiens, UniProt P24941); test: CDK2/CyclinE2 Enzymatic Activity Assay (TR-FRET); assay type: biochemical; conditions: ATP 1 mM final, read-out: CDK2_E1 IC50
T1 construct: Recombinant protein complex CDK2/Cyclin E2, expressed from insect cell, was purchased from ProQinase
Method: CDK2/CyclinE2 Enzymatic Activity Assay
The inhibitory activity of compounds was evaluated in vitro using TR-FRET assay with white 384-well low volume microplate (Greiner Bio-One). CDK2/Cyclin E2 catalyzed phosphorylation of peptide in the presence and absence of compounds was measured and used in IC50 determination. Recombinant protein complex CDK2/Cyclin E2, expressed from insect cell, was purchased from ProQinase. Testing compounds were dissolved in DMSO at 1 mM and tested in 9-dose IC50 mode. The reaction mixture was prepared by mixing CDK2/CyclinE2 (1 nM final), ULight-4E-BP1 (50 nM final, Perkinelmer, TRF0128-D), and ATP (1 mM final) in assay buffer (20 mM of HEPES pH 7.4, 1 mM of EGTA, 0.05% BSA, 0.005% Tween 20, and 1 mM TCEP). The compound of interest in DMSO was added to each well in 3-fold serial dilution by dispenser (TECAN D300E) to make a 9.9 μL of reaction mixture. After 20 minutes preincubation at room temperature, 0.1 μL MgCl2 (10 mM final) was added to initiate the reaction. Following a 45 minute incubation at 37° C., the reaction was stopped by addition of 2 μL of quenching buffer consisting of Lance detection buffer (Perkinelmer CR97-100C), LANCE Ultra Europium-anti-P-4E-BP1 (Perkinelmer, TRF0216-D), EDTA, and incubated at room temperature for additional 60 minutes in the dark. The reaction signal was measured by Envision multimode plate reader (PerkinElmer, 2102-0010). IC50 values were determined by fitting the data to the standard 4 parameters with Hill Slope using GraphPad Prism software.

Structure (SMILES)	IC50 (OVCAR3 p-RB)	IC50 (CDK2/Cyclin E2)
CC(C)(O)Cc1sc(-c2nc(NC3CCN(S(C)(=O)=O)CC3)ncc2C(F)(F)F)cc1C(N)=O [Example 130, 2-(2-hydroxy-2-methylpropyl)-5-(2-((1-(methylsulfonyl)piperidin-4-yl)amino)-5-(trifluoromethyl)pyrimidin-4-yl)thiophene-3-carboxamide]	100 to 500 nM	≤ 100 nM
C[C@@H]1CN(S(=O)(=O)c2cn(C)cn2)CC[C@@H]1Nc1ncc(C(F)(F)F)c(-c2ncc(C(C)(C)O)s2)n1 [Example 133, 2-(2-(2-(((3R,4S)-3-methyl-1-((1-methyl-1H-imidazol-4-yl)sulfonyl)piperidin-4-yl)amino)-5-(trifluoromethyl)pyrimidin-4-yl)thiazol-5-yl)propan-2-ol]	≤ 100 nM	≤ 100 nM
CS(=O)(=O)N1CCC(Nc2ncc(C(F)(F)F)c(-c3ncc(C(O)C(F)F)s3)n2)CC1 (centres unmarked) [Example 134, 2,2-difluoro-1-(2-(2-((1-(methylsulfonyl)piperidin-4-yl)amino)-5-(trifluoromethyl)pyrimidin-4-yl)thiazol-5-yl)ethan-1-ol]	≤ 100 nM	≤ 100 nM
CC(C)(O)Cc1cnc(-c2nc(N[C@@H]3CCN(S(C)(=O)=O)C[C@H]3F)ncc2C(F)(F)F)s1 [Example 135, 1-(2-(2-(((3R,4R)-3-fluoro-1-(methylsulfonyl)piperidin-4-yl)amino)-5-(trifluoromethyl)pyrimidin-4-yl)thiazol-5-yl)-2-methylpropan-2-ol]	100 to 500 nM	≤ 100 nM
Cn1cnc(S(=O)(=O)N2CC[C@H](Nc3ncc(C(F)(F)F)c(-c4ncc(CC(C)(C)O)s4)n3)[C@H](F)C2)c1 [Example 136, 1-(2-(2-(((3R,4S)-3-fluoro-1-((1-methyl-1H-imidazol-4-yl)sulfonyl)piperidin-4-yl)amino)-5-(trifluoromethyl)pyrimidin-4-yl)thiazol-5-yl)-2-methylpropan-2-ol]	≤ 100 nM	≤ 100 nM
CC(C)(O)Cc1cnc(-c2nc(N[C@H]3CCN(S(=O)(=O)c4cn[nH]c4)C[C@H]3F)ncc2C(F)(F)F)s1 [Example 137, 1-(2-(2-(((3R,4S)-1-((1H-pyrazol-4-yl)sulfonyl)-3-fluoropiperidin-4-yl)amino)-5-(trifluoromethyl)pyrimidin-4-yl)thiazol-5-yl)-2-methylpropan-2-ol]	≤ 100 nM	≤ 100 nM
C[C@@H]1CN(S(=O)(=O)c2cnn(C)c2)CC[C@@H]1Nc1ncc(C(F)(F)F)c(-c2ncc(C(O)C(F)F)s2)n1 (stereo partly drawn) [Example 138, 2,2-difluoro-1-(2-(2-(((3R,4S)-3-methyl-1-((1-methyl-1H-pyrazol-4-yl)sulfonyl)piperidin-4-yl)amino)-5-(trifluoromethyl)pyrimidin-4-yl)thiazol-5-yl)ethan-1-ol]	≤ 100 nM	≤ 100 nM
C[C@@H]1CN(S(=O)(=O)c2cn(C)cn2)CC[C@@H]1Nc1ncc(C(F)(F)F)c(-c2ncc(C(O)C(F)F)s2)n1 (stereo partly drawn) [Example 139, 2,2-difluoro-1-(2-(2-(((3R,4S)-3-methyl-1-((1-methyl-1H-imidazol-4-yl)sulfonyl)piperidin-4-yl)amino)-5-(trifluoromethyl)pyrimidin-4-yl)thiazol-5-yl)ethan-1-ol]	≤ 100 nM	≤ 100 nM
C[C@@H]1CN(S(C)(=O)=O)CC[C@@H]1Nc1ncc(C(F)(F)F)c(-c2ncc(C(O)C(F)(F)F)s2)n1 (stereo partly drawn) [Example 140, 2,2,2-trifluoro-1-(2-(2-(((3R,4S)-3-methyl-1-(methylsulfonyl)piperidin-4-yl)amino)-5-(trifluoromethyl)pyrimidin-4-yl)thiazol-5-yl)ethan-1-ol]	> 500 nM	≤ 100 nM
C[C@@H]1CN(S(=O)(=O)c2cnn(C)c2)CC[C@@H]1Nc1ncc(C(F)(F)F)c(-c2ncc(C(O)C(F)(F)F)s2)n1 (stereo partly drawn) [Example 141, 2,2,2-trifluoro-1-(2-(2-(((3R,4S)-3-methyl-1-((1-methyl-1H-pyrazol-4-yl)sulfonyl)piperidin-4-yl)amino)-5-(trifluoromethyl)pyrimidin-4-yl)thiazol-5-yl)ethan-1-ol]	100 to 500 nM	≤ 100 nM
C[C@@H]1CN(S(=O)(=O)c2cnn(C)c2)CC[C@@H]1Nc1ncc(C(F)(F)F)c(-c2ncc(C(C)(O)C(F)F)s2)n1 (stereo partly drawn) [Example 143, 1,1-difluoro-2-(2-(2-(((3R,4S)-3-methyl-1-((1-methyl-1H-pyrazol-4-yl)sulfonyl)piperidin-4-yl)amino)-5-(trifluoromethyl)pyrimidin-4-yl)thiazol-5-yl)propan-2-ol]	≤ 100 nM	≤ 100 nM
C[C@@H]1CN(S(=O)(=O)c2cnn(C)c2)CC[C@@H]1Nc1ncc(C(F)(F)F)c(-c2ncc(C(O)CF)s2)n1 (stereo partly drawn) [Example 144, 2-fluoro-1-(2-(2-(((3R,4S)-3-methyl-1-((1-methyl-1H-pyrazol-4-yl)sulfonyl)piperidin-4-yl)amino)-5-(trifluoromethyl)pyrimidin-4-yl)thiazol-5-yl)ethan-1-ol]	100 to 500 nM	≤ 100 nM
C[C@@H]1CN(S(C)(=O)=O)CC[C@@H]1Nc1ncc(C(F)(F)F)c(-c2ncc(C(O)CF)s2)n1 (stereo partly drawn) [Example 145, 2-fluoro-1-(2-(2-(((3R,4S)-3-methyl-1-(methylsulfonyl)piperidin-4-yl)amino)-5-(trifluoromethyl)pyrimidin-4-yl)thiazol-5-yl)ethan-1-ol]	> 500 nM	≤ 100 nM
C[C@@H]1CN(S(C)(=O)=O)CC[C@@H]1Nc1ncc(C(F)(F)F)c(-c2ncc(C(O)C(F)F)s2)n1 (stereo partly drawn) [Example 146, 2,2-difluoro-1-(2-(2-(((3R,4S)-3-methyl-1-(methylsulfonyl)piperidin-4-yl)amino)-5-(trifluoromethyl)pyrimidin-4-yl)thiazol-5-yl)ethan-1-ol]	100 to 500 nM	≤ 100 nM
C[C@@H]1CN(S(=O)(=O)N2CCOCC2)CC[C@@H]1Nc1ncc(C(F)(F)F)c(-c2ncc(CC(C)(C)O)s2)n1 [Example 147, 2-methyl-1-(2-(2-(((3R,4S)-3-methyl-1-(morpholinosulfonyl)piperidin-4-yl)amino)-5-(trifluoromethyl)pyrimidin-4-yl)thiazol-5-yl)propan-2-ol]	> 500 nM	≤ 100 nM
C[C@@H]1CN(S(=O)(=O)N2CCN(C)CC2)CC[C@@H]1Nc1ncc(C(F)(F)F)c(-c2ncc(CC(C)(C)O)s2)n1 [Example 148, 2-methyl-1-(2-(2-(((3R,4S)-3-methyl-1-((4-methylpiperazin-1-yl)sulfonyl)piperidin-4-yl)amino)-5-(trifluoromethyl)pyrimidin-4-yl)thiazol-5-yl)propan-2-ol]	> 500 nM	≤ 100 nM
C[C@@H]1CN(S(=O)(=O)N(C)C)CC[C@@H]1Nc1ncc(C(F)(F)F)c(-c2ncc(CC(C)(C)O)s2)n1 [Example 149, (3R,4S)-4-((4-(5-(2-hydroxy-2-methylpropyl)thiazol-2-yl)-5-(trifluoromethyl)pyrimidin-2-yl)amino)-N,N,3-trimethylpiperidine-1-sulfonamide]	> 500 nM	≤ 100 nM
C[C@@H]1CN(S(=O)(=O)c2cnn(C)c2)CC[C@@H]1Nc1ncc(C(F)(F)F)c(-c2ncc(C3(O)CC3)s2)n1 [Example 150, 1-(2-(2-(((3R,4S)-3-methyl-1-((1-methyl-1H-pyrazol-4-yl)sulfonyl)piperidin-4-yl)amino)-5-(trifluoromethyl)pyrimidin-4-yl)thiazol-5-yl)cyclopropan-1-ol]	100 to 500 nM	≤ 100 nM
C[C@@H]1CN(S(C)(=O)=O)CC[C@@H]1Nc1ncc(C(F)(F)F)c(-c2ncc(C3(O)CC3)s2)n1 [Example 151, 1-(2-(2-(((3R,4S)-3-methyl-1-(methylsulfonyl)piperidin-4-yl)amino)-5-(trifluoromethyl)pyrimidin-4-yl)thiazol-5-yl)cyclopropan-1-ol]	> 500 nM	≤ 100 nM
